{"source": "patent US20240317754A1", "about": "(priority 2020, published 2024)", "key": {"[1]": {"tested_on": "SARS-CoV-2 variant B.1.351", "assay": "microbe, parasite or virus in culture", "format": "cell-based"}, "[2]": {"tested_on": "SARS-CoV-2 B.1.617.2 variants", "conditions": "in vivo"}, "[3]": {"tested_on": "SARS-CoV-2 variant B.1.617.2", "assay": "microbe, parasite or virus in culture", "format": "cell-based"}, "SARS-CoV-2 variants": {"tested_on": "SARS-CoV-2 variants", "assay": "microbe, parasite or virus in culture", "format": "cell-based"}, "[4]": {"conditions": "Severe acute respiratory syndrome coronavirus 2, Vero C1008, 48 h"}}, "note": "pIC50: −log10 of the molar value. Like-named read-outs stand apart in the source and are kept apart here.", "data": [{"smiles": "CC(C)C(=O)OC[C@H]1O[C@@](C#N)(c2ccc3c(N)ncnn23)[C@H](O)[C@@H]1O", "note": "[ATV006, ((2R,3S,4R,5R)-5-(4-aminopyrrolo[2,1-f][1,2,4]triazin-7-yl)-5-cyano-3,4-dihydroxytetrahydrofuran-2-yl)methyl isobutyrate]", "values": [{"measurement": "pIC50", "setting": "[1]; [4]", "result": 5.95}, {"measurement": "amount of viral genome (N gene) in lung tissue", "setting": "[2]", "result": "significantly lower than that in the control group"}, {"measurement": "amount of viral subgenome (subgenomic N) in lung tissue", "setting": "[2]", "result": "significantly lower than that in the control group"}, {"measurement": "pIC50", "setting": "[3]; [4]", "result": 6.46}]}, {"smiles": "CCCC(=O)OC[C@H]1O[C@@](C#N)(c2ccc3c(N)ncnn23)[C@H](O)[C@@H]1O", "note": "[ATV009, ((2R,3S,4R,5R)-5-(4-aminopyrrolo[2,1-f][1,2,4]triazin-7-yl)-5-cyano-3,4-dihydroxytetrahydrofuran-2-yl)methyl butyrate]", "values": [{"measurement": "pIC50", "setting": "[1]; [4]", "result": 5.86}, {"measurement": "pIC50", "setting": "[3]; [4]", "result": 6.31}]}, {"smiles": "CCCCCCCCC(=O)OC[C@H]1O[C@@](C#N)(c2ccc3c(N)ncnn23)[C@H](O)[C@@H]1O", "note": "[ATV010, ((2R,3S,4R,5R)-5-(4-aminopyrrolo[2,1-f][1,2,4]triazin-7-yl)-5-cyano-3,4-dihydroxytetrahydrofuran-2-yl)methyl nonanoate]", "values": [{"measurement": "pIC50", "setting": "[1]; [4]", "result": 6.00}, {"measurement": "pIC50", "setting": "[3]; [4]", "result": 6.34}]}, {"smiles": "CCC(CC)C(=O)OC[C@H]1O[C@@](C#N)(c2ccc3c(N)ncnn23)[C@H](O)[C@@H]1O", "note": "[ATV011, ((2R,3S,4R,5R)-5-(4-aminopyrrolo[2,1-f][1,2,4]triazin-7-yl)-5-cyano-3,4-dihydroxytetrahydrofuran-2-yl)methyl 2-ethylbutanoate]", "values": [{"measurement": "pIC50", "setting": "[1]; [4]", "result": 5.64}, {"measurement": "pIC50", "setting": "[3]; [4]", "result": 6.39}]}, {"smiles": "N#C[C@@]1(c2ccc3c(N)ncnn23)O[C@H](COC(=O)c2ccccc2)[C@@H](O)[C@H]1O", "note": "[ATV013, ((2R,3S,4R,5R)-5-(4-aminopyrrolo[2,1-f][1,2,4]triazin-7-yl)-5-cyano-3,4-dihydroxytetrahydrofuran-2-yl)methyl benzoate]", "values": [{"measurement": "pIC50", "setting": "[1]; [4]", "result": 5.61}, {"measurement": "pIC50", "setting": "[3]; [4]", "result": 6.02}]}, {"smiles": "N#C[C@@]1(c2ccc3c(N)ncnn23)O[C@H](COC(=O)C2CCCCC2)[C@@H](O)[C@H]1O", "note": "[ATV014, ((2R,3S,4R,5R)-5-(4-aminopyrrolo[2,1-f][1,2,4]triazin-7-yl)-5-cyano-3,4-dihydroxytetrahydrofuran-2-yl)methyl cyclohexanecarboxylate]", "values": [{"measurement": "pIC50", "setting": "[1]", "result": 6.60}, {"measurement": "pIC50", "setting": "[3]", "result": 6.68}, {"measurement": "pIC50", "setting": "SARS-CoV-2 variants; Severe acute respiratory syndrome coronavirus 2", "result": "> 6.47"}, {"measurement": "anti-SARS-CoV-2 activity relative to GS-441524", "setting": "SARS-CoV-2 variants; summary statement, in words", "result": "twice that of GS-441524"}]}, {"smiles": "CC(C)CC(=O)OC[C@H]1O[C@@](C#N)(c2ccc3c(N)ncnn23)[C@H](O)[C@@H]1O", "note": "[ATV017, ((2R,3S,4R,5R)-5-(4-aminopyrrolo[2,1-f][1,2,4]triazin-7-yl)-5-cyano-3,4-dihydroxytetrahydrofuran-2-yl)methyl 3-methylbutanoate]", "values": [{"measurement": "pIC50", "setting": "[1]; [4]", "result": 5.55}, {"measurement": "pIC50", "setting": "[3]; [4]", "result": 6.37}]}, {"smiles": "CC(C)(C)C(=O)OC[C@H]1O[C@@](C#N)(c2ccc3c(N)ncnn23)[C@H](O)[C@@H]1O", "note": "[ATV018, ((2R,3S,4R,5R)-5-(4-aminopyrrolo[2,1-f][1,2,4]triazin-7-yl)-5-cyano-3,4-dihydroxytetrahydrofuran-2-yl)methyl pivalate]", "values": [{"measurement": "pIC50", "setting": "[1]; [4]", "result": 6.11}, {"measurement": "pIC50", "setting": "[3]; [4]", "result": 6.64}]}, {"smiles": "N#C[C@@]1(c2ccc3c(N)ncnn23)O[C@H](CO)[C@@H](O)[C@H]1O", "note": "[GS-441524, reference compound]", "values": [{"measurement": "pIC50", "setting": "[1]", "result": 5.75}, {"measurement": "pIC50", "setting": "[3]", "result": 5.78}]}]}
